One may read the AUC as the area under the concentration-time curve, a measure of exposure. As a reminder, the bioavailability is the share of a dose that reaches the circulation, judged against a reference dose that is usually intravenous. A higher bioavailability goes with good availability. Broadly, the Kp is the ratio of the level in a tissue or fluid to that in plasma or blood. What is called Ki is the equilibrium dissociation constant of an inhibitor or competing ligand from its target.

A value given as a limit tells only on which side of the number the result lay.

Series [1] can be described thus: Plasma pharmacokinetic parameters following intravenous (IV) or oral (PO) administration in rats. It counts as in vivo, Sprague-Dawley rats. As to conditions: male, Sprague-Dawley, rat, plasma, Table 6; for AUC / bioavailability: 2.5 mg/kg, oral (PO) administration essentially as described in Example 28; for clearance: intravenous, 0.5 mg/kg, essentially as described in Example 28; for bioavailability: po. As to the method:
Adult male Sprague-Dawley rats (230-250 g) (Charles River Labs, Hollister, CA) were utilized for the study. There were 2 rats/group. All animals were food fasted overnight with water provided ad libitum at all times. Compounds 1, 4, 14 and 19 were synthesized as described in Examples 2, 17, 7, and 12, respectively, and formulated in injectable water.
(§1) The morning of each dosing, individual doses were calculated based on current body weights on the day of dosing. The jugular vein cannula (JVC) and the carotid artery cannula (CAC) were externalized, flushed with HEP/saline (10 IU/mL HEP/mL saline), plugged, and labeled to identify the jugular vein and the carotid artery. The IV group animals were dosed at 0.5 mg/kg of Compound 1, 4, 14 or 19, respectively, intravenously via the jugular vein, while the PO dose was administered 2.5 mg/kg of Compound 1, 4, 14 or 19, respectively, orally via gavage. For the IV group, immediately following the dose of test article, the dead volume of the catheter was flushed with 0.9% saline to ensure the animals received the full dose.
Approximately 0.2 mL of blood was collected per time point from JVC. Blood samples were collected at 2 (IV group only), 5, 15, 30, 60, 120, 240, 360, 420 (Compound 19 only), 480, 720 (Compound 19 only), and 1440 minutes via the CAC and transferred immediately into K2EDTA coated tubes pre-loaded 2 μl with quenching cocktail and placed on wet ice. The samples were centrifuged within 30 min after collection at 10,000 RPM for 5 minutes and the resulting plasma was separated. Plasma was transferred into microfuge tubes and placed on dry ice immediately. The plasma samples were stored at approximately −70° C. until bioanalysis.
Plasma samples were extracted by protein precipitation with acetonitrile containing 0.1% formic acid and doxepin for Compound 1 (available from Sigma-Aldrich) or SCH58261 for Compounds 4, 14 and 19 (available from Sigma-Aldrich) as an internal standard. Following vortex and centrifugation, supernatant was diluted 3-fold with water containing 0.1% formic acid and analyzed by LC-MS/MS.
Pharmacokinetic parameters (PK) were determined by non-compartmental analysis (NCA) using Phoenix 64 WinNonlin (version 8) and Dotmatics (version 5.0). Nominal doses and time points were used for the analysis.
The following PK parameters were estimated using plasma concentration-time profile of each animal with the results presented in Table 3: • AUCinf Area under the concentration-time from zero to time infinity • AUClast Area under the concentration-time from zero to time of last concentration value • F Bioavailability • CL Total body clearance • Cmax Maximum (peak) concentration • MRTlast Mean residence time to last observable concentration • Tmax Time to reach maximum or peak concentration following administration • Vss Volume of distribution at steady state
Adult male Sprague-Dawley rats (230-250 g) (Charles River Labs, Hollister, CA) were utilized for the study. There were 2 rats/group. All animals were food fasted overnight with water provided ad libitum at all times. Compound 1 was synthesized as described in Example 2 and formulated in injectable water.
as §1, with “1” for “1, 4, 14 or 19, respectively,”
Approximately 0.2 mL of blood was collected per time point from JVC. […]

The nature of series [2]: Brain-to-plasma ratio (B/P) after administration. It counts as in vivo, Sprague-Dawley rats. To be noted: Sprague-Dawley, rat, oral, 2.5 mg/kg; Table 6; brain-to-plasma ratio at 1 h. The source says: A similar unexpected result was obtained when the phenyl ring present on Compound 1 was replaced with a halogen substituted pyridine. The halogen was previously introduced on the phenyl ring with the aim of blocking a possible metabolic soft-spot, with similar results observed as for Compound 1 in terms of exposure, clearance and bioavailability (Compound 10 and Compound 15). The substituted pyridine ring was designed to modulate the lipophilicity and polar surface area, as well as to address metabolic soft-spot concerns. Clearance and bioavailability parameters remain similar between substituted phenyl and pyridine (Compound 4 and Compound 14) analogs, which span a range in cLogP of 2.7-3.2. It was therefore surprising the significant improvement in exposure and clearance observed for the more lipophilic Compound 19. […] A compound is commonly deemed to be a brain penetrant if the brain-to-blood/plasma concentration ratio (B/P) is greater than 0.04 using methods as known in the art (Schaffer, Annual Reports in Medicinal Chemistry, 45:55-70, 2010).
Plasma pharmacokinetic parameters were determined following oral (PO) administration of further compounds essentially as described in Example 28 with the results shown in Table 6.

The next series has as its target T1, A1 receptor (Homo sapiens, UniProt P30542).
T1 construct: purchased
T1 sequence (P30542 1-326): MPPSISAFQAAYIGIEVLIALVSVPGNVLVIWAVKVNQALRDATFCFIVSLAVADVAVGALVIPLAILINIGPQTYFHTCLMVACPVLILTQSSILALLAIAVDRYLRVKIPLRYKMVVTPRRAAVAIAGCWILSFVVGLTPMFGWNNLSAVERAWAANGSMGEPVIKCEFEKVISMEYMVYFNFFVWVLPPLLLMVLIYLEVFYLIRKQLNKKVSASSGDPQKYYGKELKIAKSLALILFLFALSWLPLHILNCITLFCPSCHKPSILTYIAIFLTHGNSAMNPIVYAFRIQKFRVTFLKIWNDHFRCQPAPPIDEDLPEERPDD
As to the kind of experiment: Radioligand receptor binding assay, A1 receptor. As to conditions: cell membranes overexpressing A1 receptor, read-out: Potency Ki A1. As to the method: (§2) Using conventional receptor binding assay techniques, Compounds 1-24 were assayed to determine binding activity at the A2A, A1, and A3 receptors with the results shown in Table 7.
(§3) Receptor binding affinity of Compounds 1-24 was measured using radioligand binding assays using commercially obtained cell membranes prepared from cell lines overexpressing the A2A, A1, or A3 receptors. Briefly, cell membrane preparations from cells expressing the specific receptor were mixed with the appropriate [^3H]-labeled tracer for the specific receptor and the test compound or a known inhibitor of receptor-ligand binding. Following 60 min incubation at room temperature to allow receptor-ligand complex formation, the complexes were collected by filtration, washed with 50 mM Tris HCl (pH 7.5) to remove radioligand that was not receptor-bound, and the remaining radioactivity determined by liquid scintillation counting. Specific radioligand binding was calculated for each test compound concentration and IC50 values were determined by non-linear, regression analysis. Inhibition constants (Ki) were calculated using the equation of Cheng and Prusoff using the observed IC50 of the tested compound, the concentration of radioligand employed in the assay and the experimentally determined values for the Kd of the ligand.

For a further series, the target named is T2, A2A receptor (Homo sapiens, UniProt P29274).
T2 construct: purchased
The series can be described thus: Radioligand receptor binding assay, A2A receptor. As to conditions: cell membranes overexpressing A2A receptor, read-out: Potency Ki A2A. As for the experimental part: as §2, §3

T2 sequence (P29274 whole entry): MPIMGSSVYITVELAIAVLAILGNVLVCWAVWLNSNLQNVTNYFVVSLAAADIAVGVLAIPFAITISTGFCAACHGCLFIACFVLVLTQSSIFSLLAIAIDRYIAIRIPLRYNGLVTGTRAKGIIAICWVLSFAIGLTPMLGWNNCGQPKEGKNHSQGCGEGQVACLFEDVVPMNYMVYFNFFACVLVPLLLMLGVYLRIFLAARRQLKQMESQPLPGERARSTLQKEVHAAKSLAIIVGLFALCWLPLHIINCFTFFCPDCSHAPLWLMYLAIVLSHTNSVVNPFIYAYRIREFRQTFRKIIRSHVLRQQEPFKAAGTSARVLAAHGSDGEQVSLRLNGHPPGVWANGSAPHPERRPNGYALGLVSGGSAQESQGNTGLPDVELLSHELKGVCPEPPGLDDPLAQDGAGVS

On to `COCCOc1ccc(N2CCN(CCN(C)c3nc(N)n4nc(-c5ncco5)nc4n3)CC2)cc1` [Compound 2, N^5-(2-{4-[4-(2-methoxyethoxy)phenyl]piperazin-1-yl}ethyl)-N^5-methyl-2-(1,3-oxazol-2-yl)[1,2,4]triazolo[1,5-a][1,3,5]triazine-5,7-diamine], for which, in series [1], the AUC was determined as 320 ng·h/mL, the clearance amounted to 54 mL/min/kg and the bioavailability was found to be 43%. Besides, the Kp at 1 h in series [2] was 0.04. The Ki on A1 receptor came to 13000 nM. At A2A receptor, the Ki came to 7 nM.
In the case of `COCCOc1cnc(N2CCN(CCN(C)c3cc4nc(-c5ncco5)nn4c(N)n3)CC2)nc1` [Compound 3, N^7-(2-{4-[5-(2-methoxyethoxy)pyrimidin-2-yl]piperazin-1-yl}ethyl)-N^7-methyl-2-(1,3-oxazol-2-yl)[1,2,4]triazolo[1,5-c]pyrimidine-5,7-diamine], in series [1], the AUC was 376 ng·h/mL, the clearance turned out to be 47 mL/min/kg and the bioavailability came to 44%. In series [2], the Kp at 1 h came out at 0.04. Besides, at A1 receptor, the Ki stood at 20100 nM. Moreover, the Ki at A2A receptor was found to be 10 nM.
In series [1], `CN(CCN1CCN(c2ccc(OCCOC(F)(F)F)cc2)CC1)c1cc2nc(-c3ncco3)nn2c(N)n1` [Compound 5, N^7-methyl-2-(1,3-oxazol-2-yl)-N^7-[2-(4-{4-[2-(trifluoromethoxy)ethoxy]phenyl}piperazin-1-yl)ethyl][1,2,4]triazolo[1,5-c]pyrimidine-5,7-diamine] had an AUC of 971 ng·h/mL, a clearance of 21 mL/min/kg and a bioavailability of 48%. Moreover, the Kp at 1 h in series [2] stood at 0.1. At A1 receptor, the Ki is over 10000 nM. For the same compound, at A2A receptor, the Ki is 7 nM.
Consider `[2H]C([2H])([2H])N(CCN1CCN(c2ccc(OCCOC)cc2)CC1)c1cc2nc(-c3ncco3)nn2c(N)n1` [Compound 6, N^7-(2-{4-[4-(2-methoxyethoxy)phenyl]piperazin-1-yl}ethyl)-N^7-(^2H3)methyl-2-(1,3-oxazol-2-yl)[1,2,4]triazolo[1,5-c]pyrimidine-5,7-diamine], for which, in series [1], the AUC came to 852 ng·h/mL, the clearance amounted to 34 mL/min/kg and the bioavailability stood at 64%. Further, the Kp at 1 h in series [2] was 0.05. Further, the Ki at A1 receptor is over 4000 nM. For the same compound, on A2A receptor, the Ki came to 12 nM.
For `[2H]C([2H])([2H])OCCOc1ccc(N2CCN(CCN(C)c3cc4nc(-c5ncco5)nn4c(N)n3)CC2)cc1` [Compound 7, N^7-methyl-N^7-{2-[4-(4-{2-[(^2H3)methyloxy]ethoxy}phenyl)piperazin-1-yl]ethyl}-2-(1,3-oxazol-2-yl)[1,2,4]triazolo[1,5-c]pyrimidine-5,7-diamine], in series [1], the AUC was found to be 1020 ng·h/mL, the clearance came to 24 mL/min/kg and the bioavailability worked out at 60%. Moreover, in series [2], the Kp at 1 h stood at 0.07. The Ki at A1 receptor was over 4000 nM. Besides, the Ki at A2A receptor amounted to 13 nM.
For `[2H]C([2H])([2H])OCCOc1ccc(N2CCN(CCN(c3cc4nc(-c5ncco5)nn4c(N)n3)C([2H])([2H])[2H])CC2)cc1` [Compound 8, N^7-(^2H3)methyl-N^7-{2-[4-(4-{2-[(^2H3)methyloxy]ethoxy}phenyl)piperazin-1-yl]ethyl}-2-(1,3-oxazol-2-yl)[1,2,4]triazolo[1,5-c]pyrimidine-5,7-diamine], in series [1], the AUC turned out to be 1200 ng·h/mL, the clearance came out at 22 mL/min/kg and the bioavailability turned out to be 63%. Moreover, in series [2], the Kp at 1 h was 0.04. In addition, the inhibition constant (Ki) at A1 receptor is over 4000 nM. For the same compound, the Ki at A2A receptor was 4 nM.
In series [1], `[2H]C([2H])([2H])OCCOc1cnc(N2CCN(CCN(C)c3cc4nc(-c5ncco5)nn4c(N)n3)CC2)c(F)c1` [Compound 11, N^7-{2-[4-(3-fluoro-5-{2-[(^2H3)methyloxy]ethoxy}pyridin-2-yl)piperazin-1-yl]ethyl}-N^7-methyl-2-(1,3-oxazol-2-yl)[1,2,4]triazolo[1,5-c]pyrimidine-5,7-diamine] had an AUC of 708 ng·h/mL, a clearance of 30 mL/min/kg and a bioavailability of 63%. For the same compound, at A1 receptor, the Ki turned out to be 16900 nM. For the same compound, the Ki at A2A receptor turned out to be 2.3 nM.

(Values after patent US12325708B2, “Adenosine 2 receptor antagonists” (Nektar Therapeutics, priority 2019, dated 2025).)
